In PMC5454994, “Assembly of Hepatocyte Spheroids Using Magnetic 3D Cell Culture for CYP450 Inhibition/Induction” (International Journal of Molecular Sciences, 2017):

Columns and labels:
CYP1A2 = biological target: T1, CYP1A2 (Homo sapiens, UniProt P05177); assay: CYP1A2 activity (P450-Glo, Luciferin-1A2) in primary human hepatocyte spheroids and monolayers after 72 h drug exposure; type: in vitro ADME; conditions: primary human hepatocytes, 72 h exposure
T1 sequence (P05177 1-516): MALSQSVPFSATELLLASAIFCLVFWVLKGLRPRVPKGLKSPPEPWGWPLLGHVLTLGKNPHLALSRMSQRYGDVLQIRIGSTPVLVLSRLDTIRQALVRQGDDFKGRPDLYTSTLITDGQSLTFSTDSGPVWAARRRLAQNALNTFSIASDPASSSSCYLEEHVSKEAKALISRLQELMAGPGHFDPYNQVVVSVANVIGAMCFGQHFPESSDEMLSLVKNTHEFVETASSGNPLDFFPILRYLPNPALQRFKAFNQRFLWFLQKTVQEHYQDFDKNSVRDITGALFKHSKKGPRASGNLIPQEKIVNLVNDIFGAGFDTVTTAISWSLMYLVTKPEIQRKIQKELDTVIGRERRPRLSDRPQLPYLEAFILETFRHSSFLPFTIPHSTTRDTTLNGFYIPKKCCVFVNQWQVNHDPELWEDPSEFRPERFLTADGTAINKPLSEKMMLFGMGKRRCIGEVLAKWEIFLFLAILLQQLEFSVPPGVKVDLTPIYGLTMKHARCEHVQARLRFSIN

CYP2B6 = biological target: T2, CYP2B6 (Homo sapiens, UniProt P20813); conditions: CYP2B6 replicates, primary human hepatocytes, 72 h exposure
T2 sequence (P20813 1-491): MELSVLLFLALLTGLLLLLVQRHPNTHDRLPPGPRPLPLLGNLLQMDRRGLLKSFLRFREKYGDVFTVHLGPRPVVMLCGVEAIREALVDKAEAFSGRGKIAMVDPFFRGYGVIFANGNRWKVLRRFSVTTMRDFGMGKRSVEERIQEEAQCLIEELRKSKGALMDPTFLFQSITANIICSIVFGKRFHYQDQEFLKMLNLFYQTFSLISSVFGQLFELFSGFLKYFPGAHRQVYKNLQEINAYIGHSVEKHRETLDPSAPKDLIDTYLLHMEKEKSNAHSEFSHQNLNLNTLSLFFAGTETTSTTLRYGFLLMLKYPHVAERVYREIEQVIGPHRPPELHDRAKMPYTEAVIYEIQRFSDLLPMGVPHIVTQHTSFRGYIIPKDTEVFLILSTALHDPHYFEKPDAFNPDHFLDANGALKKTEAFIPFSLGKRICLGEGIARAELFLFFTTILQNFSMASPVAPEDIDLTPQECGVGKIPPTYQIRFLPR

Q: Which “CYP1A2 activity in the presence of toxicity” value (CYP1A2) does the source give for `COc1ccc2[nH]c([S+]([O-])Cc3ncc(C)c(OC)c3C)nc2c1` (stereo not drawn) [omeprazole] here?
A: no observed decrease in CYP activity despite toxicity

Q: And the “CYP1A2 induction, monolayers compared to spheroids” value (CYP1A2; normalized to control)?
A: higher in monolayers compared to spheroids

Q: For `CO[C@H]1/C=C/O[C@@]2(C)Oc3c(C)c(O)c4c(O)c(c(/C=N/N5CCN(C)CC5)c(O)c4c3C2=O)NC(=O)/C(C)=C\C=C\[C@H](C)[C@H](O)[C@@H](C)[C@@H](O)[C@@H](C)[C@H](OC(C)=O)[C@@H]1C` [rifampicin], which “CYP2B6 activity in the presence of toxicity” value (CYP2B6) is on record?
A: no observed decrease in CYP activity despite toxicity
